Experimental data published in EP4752139A1, “BRANCHED MULTI-HYDROXYL-PROTECTING OLIGOMER, LINKED BODY BONDED THEREWITH, AND BRANCHED MULTI-HYDROXYL OLIGOMER OBTAINED BY DEPROTECTING SAID LINKED BODY” (Tomoike Bio Ltd., priority 2023, dated 2025).

Test: Evaluation of water solubility of deprotected pterostilbene linked bodies
Format: physicochemical
Details: ion-exchanged water; solubility threshold could not be measured because the compound was extremely water-soluble
Protocol: The deprotected pterostilbene linked body obtained in Examples were evaluated for water solubility using the following method. In FIGs 1 and 2, the numbers in the ellipses for each compound represent a level of water solubility as a molar ratio, with the water solubility of F1 (pterostilbene) (21 mg (0.0819 mmol) dissolved in 1 liter) being set at 1.0. The water solubility of F1 (pterostilbene) was determined using the value described in Sarah J. Bethune et al., Cryst. Growth Des. 2011, 11, 2817-2823. The water solubility of F1 glycoside (pterostilbene monoglycoside) was determined using the value described in Jose L. Gonzalez-Alfonso et al., Molecules 2018, 23, 1271.
Into a round-bottom flask was weighed 1.0 g of the compound and 100 mL of ion-exchanged water in sequence and the mixture was heated with a heat gun for about 1 minute, taking care not to boil the mixture, and then cooled to room temperature and allowed to stand. After 24 hours, the residue was removed by filtration, and the filtrate was concentrated under reduced pressure. A water solubility of each compound was calculated from the weight of the compound recovered from the filtrate.
In a round-bottom flask, a solution was prepared the amounts of the compound and ion-exchanged water shown in Figure 1, and a water solubility of the compound was calculated. Because the compound was extremely water-soluble, a water solubility threshold could not be measured. However, compared to the hardly water-soluble F1, its water solubility was 2×10^4 times or more, that is, extremely higher.

| water solubility compared to the hardly water-soluble F1 | SMILES |
| --- | --- |
| ≥ 2×10^4 times | COc1cc(/C=C/c2ccc(OCC(CO)(CO)COCC(COCC(CO)(CO)CO)(COCC(CO)(CO)CO)COCC(CO)(CO)CO)cc2)cc(OC)c1 [J119, (E)-2,2'-(((2-((3-(4-(3,5-dimethoxystyryl)phenoxy)-2,2-bis(hydroxymethyl)propoxy)methyl)-2-((3-hydroxy-2,2-bis(hydroxymethyl)propoxy)methyl)propane-1,3-diyl)bis(oxy))bis(methylene))bis(2-(hydroxymethyl)propane-1,3-diol)] |
| ≥ 2×10^4 times | COc1cc(/C=C/c2ccc(OCC(CO)(CO)COCC(COC(CO)CO)(COC(CO)CO)COC(CO)CO)cc2)cc(OC)c1 [J129, (E)-2,2'-((2-(((1,3-dihydroxypropan-2-yl)oxy)methyl)-2-((3-(4-(3,5-dimethoxystyryl)phenoxy)-2,2-bis(hydroxymethyl)propoxy)methyl)propane-1,3-diyl)bis(oxy))bis(propane-1,3-diol)] |
| ≥ 2×10^4 times | COc1cc(/C=C/c2ccc(OCC(CO)(CO)COCC(COCC(O)CO)(COCC(O)CO)COCC(O)CO)cc2)cc(OC)c1 (stereo not drawn) [J139, (E)-3,3'-((2-((2,3-dihydroxypropoxy)methyl)-2-((3-(4-(3,5-dimethoxystyryl)phenoxy)-2,2-bis(hydroxymethyl)propoxy)methyl)propane-1,3-diyl)bis(oxy))bis(propane-1,2-diol)] |
| ≥ 2×10^4 times | COc1cc(/C=C/c2ccc(OCC(CO)(CO)COC(COCC(CO)(CO)CO)COCC(CO)(CO)CO)cc2)cc(OC)c1 [J219, (E)-2,2'-(((2-(3-(4-(3,5-dimethoxystyryl)phenoxy)-2,2-bis(hydroxymethyl)propoxy)propane-1,3-diyl)bis(oxy))bis(methylene))bis(2-(hydroxymethyl)propane-1,3-diol)] |
| ≥ 2×10^4 times | COc1cc(/C=C/c2ccc(OCC(CO)(CO)COC(COC(CO)CO)COC(CO)CO)cc2)cc(OC)c1 [J229, (E)-2,2'-((2-(3-(4-(3,5-dimethoxystyryl)phenoxy)-2,2-bis(hydroxymethyl)propoxy)propane-1,3-diyl)bis(oxy))bis(propane-1,3-diol)] |
| ≥ 2×10^4 times | COc1cc(/C=C/c2ccc(OCC(CO)(CO)COC(COCC(O)CO)COCC(O)CO)cc2)cc(OC)c1 (stereo not drawn) [J239, (E)-3,3'-((2-(3-(4-(3,5-dimethoxystyryl)phenoxy)-2,2-bis(hydroxymethyl)propoxy)propane-1,3-diyl)bis(oxy))bis(propane-1,2-diol)] |

The remaining lines, values behind:

| SMILES | water solubility compared to the hardly water-soluble F1 |
| --- | --- |
| COc1cc(/C=C/c2ccc(OCC(COC(CO)CO)(COC(CO)CO)COC(CO)CO)cc2)cc(OC)c1 [H129, (E)-2,2'-((2-(((1,3-dihydroxypropan-2-yl)oxy)methyl)-2-((4-(3,5-dimethoxystyryl)phenoxy)methyl)propane-1,3-diyl)bis(oxy))bis(propane-1,3-diol)] | ≥ 2×10^4 times |
| COc1cc(/C=C/c2ccc(OCC(COCC(O)CO)(COCC(O)CO)COCC(O)CO)cc2)cc(OC)c1 (stereo not drawn) [H139, (E)-3,3'-((2-((2,3-dihydroxypropoxy)methyl)-2-((4-(3,5-dimethoxystyryl)phenoxy)methyl)propane-1,3-diyl)bis(oxy))bis(propane-1,2-diol)] | ≥ 2×10^4 times |

Same assay, conditions: water solubility of F1 (pterostilbene) set at 1.0 (reference)

| level of water solubility as a molar ratio | SMILES |
| --- | --- |
| 1.0 | COc1cc(/C=C/c2ccc(O)cc2)cc(OC)c1 [F1, (E)-4-(3,5-dimethoxystyryl)phenol, reference compound] |
